Experimental data published in ChEMBL document CHEMBL5291721, “A preclinical secondary pharmacology resource illuminates target-adverse drug reaction associations of marketed drugs” (Nat Commun, 2023).

Assays:
[1] = molecular target: Histamine H3 receptor (Homo sapiens, UniProt Q9Y5N1)
[2] = molecular target: Sodium-dependent dopamine transporter (Homo sapiens, UniProt Q01959)
[3] = molecular target: Mu-type opioid receptor (Homo sapiens, UniProt P35372)
[4] = molecular target: T1, Thromboxane A2 receptor (Homo sapiens, UniProt P21731); assay type: functional, cell-based
T1 sequence (P21731 whole entry): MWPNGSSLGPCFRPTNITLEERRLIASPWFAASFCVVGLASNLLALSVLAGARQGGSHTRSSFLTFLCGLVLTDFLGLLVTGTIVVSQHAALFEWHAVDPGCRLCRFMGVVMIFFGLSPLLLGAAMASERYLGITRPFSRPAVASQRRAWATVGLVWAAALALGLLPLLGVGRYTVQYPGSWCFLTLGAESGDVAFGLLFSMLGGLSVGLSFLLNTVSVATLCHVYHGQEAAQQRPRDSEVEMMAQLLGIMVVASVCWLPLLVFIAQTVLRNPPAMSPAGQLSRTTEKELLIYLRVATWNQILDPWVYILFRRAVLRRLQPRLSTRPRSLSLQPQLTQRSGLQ

[5] = molecular target: T2, Muscarinic acetylcholine receptor M2 (Homo sapiens, UniProt P08172)
T2 sequence (P08172 whole entry): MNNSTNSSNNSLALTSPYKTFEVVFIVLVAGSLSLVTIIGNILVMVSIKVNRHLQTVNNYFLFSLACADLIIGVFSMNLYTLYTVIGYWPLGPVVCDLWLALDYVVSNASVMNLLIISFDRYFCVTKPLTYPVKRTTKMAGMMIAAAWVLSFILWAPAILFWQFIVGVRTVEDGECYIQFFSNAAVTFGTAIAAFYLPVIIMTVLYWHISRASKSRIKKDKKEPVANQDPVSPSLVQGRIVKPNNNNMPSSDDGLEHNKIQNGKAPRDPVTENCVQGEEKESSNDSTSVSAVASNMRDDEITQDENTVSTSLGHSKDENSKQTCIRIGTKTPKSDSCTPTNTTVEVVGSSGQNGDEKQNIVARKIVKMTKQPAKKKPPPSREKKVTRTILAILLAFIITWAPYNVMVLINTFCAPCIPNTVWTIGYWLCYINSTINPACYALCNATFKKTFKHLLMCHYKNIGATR

[6] = molecular target: T3, Progesterone receptor (Homo sapiens, UniProt P06401)
T3 sequence (P06401 whole entry): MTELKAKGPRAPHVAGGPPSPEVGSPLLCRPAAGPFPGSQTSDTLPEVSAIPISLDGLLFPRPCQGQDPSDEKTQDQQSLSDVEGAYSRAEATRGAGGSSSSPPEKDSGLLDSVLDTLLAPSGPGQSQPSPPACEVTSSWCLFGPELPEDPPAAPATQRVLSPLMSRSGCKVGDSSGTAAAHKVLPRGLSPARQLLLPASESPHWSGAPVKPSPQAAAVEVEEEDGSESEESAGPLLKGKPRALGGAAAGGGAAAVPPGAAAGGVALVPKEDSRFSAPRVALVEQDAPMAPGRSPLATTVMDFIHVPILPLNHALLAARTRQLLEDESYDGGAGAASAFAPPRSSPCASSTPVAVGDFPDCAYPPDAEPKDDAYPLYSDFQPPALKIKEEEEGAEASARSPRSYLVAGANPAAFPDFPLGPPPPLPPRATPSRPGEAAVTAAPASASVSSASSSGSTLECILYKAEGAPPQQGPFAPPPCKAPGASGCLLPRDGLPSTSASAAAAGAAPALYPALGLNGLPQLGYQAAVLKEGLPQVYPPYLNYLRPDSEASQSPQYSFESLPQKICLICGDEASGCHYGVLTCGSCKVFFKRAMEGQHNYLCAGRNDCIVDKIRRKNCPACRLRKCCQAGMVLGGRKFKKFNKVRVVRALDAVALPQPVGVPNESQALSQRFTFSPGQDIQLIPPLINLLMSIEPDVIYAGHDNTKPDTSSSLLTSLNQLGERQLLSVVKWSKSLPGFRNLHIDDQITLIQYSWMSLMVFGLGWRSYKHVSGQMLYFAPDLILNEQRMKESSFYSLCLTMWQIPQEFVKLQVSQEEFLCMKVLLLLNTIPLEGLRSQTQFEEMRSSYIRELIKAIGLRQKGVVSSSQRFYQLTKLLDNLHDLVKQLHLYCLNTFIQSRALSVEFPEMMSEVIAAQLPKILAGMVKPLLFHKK

[7] = molecular target: Sodium-dependent serotonin transporter (Homo sapiens, UniProt P31645)
Sodium-dependent serotonin transporter, sequence (P31645 whole entry): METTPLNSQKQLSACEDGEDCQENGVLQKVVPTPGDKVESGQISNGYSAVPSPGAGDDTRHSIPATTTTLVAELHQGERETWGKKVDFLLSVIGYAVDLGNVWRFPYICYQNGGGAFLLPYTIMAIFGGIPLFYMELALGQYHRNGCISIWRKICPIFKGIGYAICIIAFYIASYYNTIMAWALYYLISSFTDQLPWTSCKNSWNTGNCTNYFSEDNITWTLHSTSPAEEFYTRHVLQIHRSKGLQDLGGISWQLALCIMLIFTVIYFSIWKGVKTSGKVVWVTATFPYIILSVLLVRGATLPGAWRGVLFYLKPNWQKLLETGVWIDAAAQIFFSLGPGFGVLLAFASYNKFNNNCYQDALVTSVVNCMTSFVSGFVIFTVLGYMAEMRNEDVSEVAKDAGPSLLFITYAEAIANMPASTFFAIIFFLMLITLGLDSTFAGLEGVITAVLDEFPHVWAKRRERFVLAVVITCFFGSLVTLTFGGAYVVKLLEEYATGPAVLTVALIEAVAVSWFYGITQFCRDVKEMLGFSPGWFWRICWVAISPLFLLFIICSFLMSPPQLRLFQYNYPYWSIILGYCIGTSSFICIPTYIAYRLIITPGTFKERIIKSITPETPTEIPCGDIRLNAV

[8] = molecular target: Gamma-aminobutyric acid receptor subunit alpha-1 (Rattus norvegicus, UniProt P62813)
Gamma-aminobutyric acid receptor subunit alpha-1, sequence (P62813 whole entry): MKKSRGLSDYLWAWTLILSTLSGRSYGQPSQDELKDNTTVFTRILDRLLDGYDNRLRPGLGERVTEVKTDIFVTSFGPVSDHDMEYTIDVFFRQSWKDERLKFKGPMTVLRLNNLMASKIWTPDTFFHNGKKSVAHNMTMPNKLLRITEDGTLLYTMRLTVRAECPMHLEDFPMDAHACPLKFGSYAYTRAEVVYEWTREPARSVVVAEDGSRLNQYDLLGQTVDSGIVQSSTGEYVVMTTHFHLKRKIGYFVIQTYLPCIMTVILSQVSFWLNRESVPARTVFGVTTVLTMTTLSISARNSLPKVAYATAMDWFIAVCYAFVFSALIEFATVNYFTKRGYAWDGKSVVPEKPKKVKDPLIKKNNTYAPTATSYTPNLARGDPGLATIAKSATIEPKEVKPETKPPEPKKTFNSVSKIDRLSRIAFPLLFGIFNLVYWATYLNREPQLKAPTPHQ
Note: assay procedure not described here.

Sodium-dependent dopamine transporter, sequence (Q01959 whole entry): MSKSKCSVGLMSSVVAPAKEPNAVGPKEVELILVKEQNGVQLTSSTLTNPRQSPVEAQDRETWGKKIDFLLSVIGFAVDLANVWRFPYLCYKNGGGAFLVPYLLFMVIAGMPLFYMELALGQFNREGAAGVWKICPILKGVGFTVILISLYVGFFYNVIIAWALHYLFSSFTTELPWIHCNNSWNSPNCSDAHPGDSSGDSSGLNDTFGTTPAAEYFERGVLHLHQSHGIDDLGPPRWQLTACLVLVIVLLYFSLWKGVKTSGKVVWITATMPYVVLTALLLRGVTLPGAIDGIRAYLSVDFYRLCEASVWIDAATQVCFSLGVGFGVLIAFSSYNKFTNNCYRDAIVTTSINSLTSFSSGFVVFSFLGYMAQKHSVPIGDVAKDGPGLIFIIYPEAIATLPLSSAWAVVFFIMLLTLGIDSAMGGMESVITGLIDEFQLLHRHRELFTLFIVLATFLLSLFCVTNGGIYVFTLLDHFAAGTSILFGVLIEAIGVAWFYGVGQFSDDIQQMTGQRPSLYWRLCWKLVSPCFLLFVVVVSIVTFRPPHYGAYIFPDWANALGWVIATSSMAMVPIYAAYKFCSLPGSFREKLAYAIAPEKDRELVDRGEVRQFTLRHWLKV
Histamine H3 receptor, sequence (Q9Y5N1 whole entry): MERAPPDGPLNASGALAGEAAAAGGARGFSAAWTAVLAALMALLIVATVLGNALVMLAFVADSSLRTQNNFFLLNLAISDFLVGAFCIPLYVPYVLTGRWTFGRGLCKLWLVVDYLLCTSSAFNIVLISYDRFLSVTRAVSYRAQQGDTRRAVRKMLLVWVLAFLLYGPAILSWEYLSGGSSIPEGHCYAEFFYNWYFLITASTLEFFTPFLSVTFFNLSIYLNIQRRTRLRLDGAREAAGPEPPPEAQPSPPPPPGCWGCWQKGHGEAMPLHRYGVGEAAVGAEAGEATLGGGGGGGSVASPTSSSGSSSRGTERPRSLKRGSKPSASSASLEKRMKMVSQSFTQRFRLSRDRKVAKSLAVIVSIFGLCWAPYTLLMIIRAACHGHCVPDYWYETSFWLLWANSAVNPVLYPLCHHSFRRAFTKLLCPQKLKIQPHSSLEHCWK
Mu-type opioid receptor, sequence (P35372 whole entry): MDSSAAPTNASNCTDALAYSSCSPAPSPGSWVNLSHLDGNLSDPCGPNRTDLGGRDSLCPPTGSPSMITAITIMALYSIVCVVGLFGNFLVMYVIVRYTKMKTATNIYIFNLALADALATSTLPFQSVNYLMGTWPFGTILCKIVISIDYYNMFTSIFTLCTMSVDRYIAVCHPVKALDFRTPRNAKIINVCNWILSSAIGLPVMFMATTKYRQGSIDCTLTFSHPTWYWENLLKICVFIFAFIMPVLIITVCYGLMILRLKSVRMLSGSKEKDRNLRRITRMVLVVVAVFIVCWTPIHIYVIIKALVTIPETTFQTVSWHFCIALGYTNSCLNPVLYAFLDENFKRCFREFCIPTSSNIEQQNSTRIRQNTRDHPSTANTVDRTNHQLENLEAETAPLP

| Compound | AC50 [1] [µM] | AC50 [2] [µM] | AC50 [3] [µM] | AC50 [4] [µM] | AC50 [5] [µM] | AC50 [6] [µM] | AC50 [7] [µM] | AC50 [8] [µM] |
| --- | --- | --- | --- | --- | --- | --- | --- | --- |
| CCCCC(CC)CN1CN(CC(CC)CCCC)CC(C)(N)C1 (stereo not drawn) [HEXETIDINE] | > 10 | 4.6 | 4.86 | > 30 | 3.18 | > 30 | 6.51 | > 30 |
| COc1c2occc2c(OC)c2c(=O)cc(C)oc12 [KHELLIN] | > 30 | > 30 | > 30 | > 30 | > 30 | > 30 | > 30 | > 30 |
| COC(=O)[C@@H](N)Cc1ccc(O)c(O)c1 [MELEVODOPA] | > 30 | > 30 | > 30 | > 30 | > 30 | > 30 | > 30 | > 30 |
| C=N[C@@H](C(=O)N[C@@H]1C(=O)N2[C@@H]1SC(C)(C)[C@@H]2C(=O)O)c1ccccc1 [METAMPICILLIN] | > 30 | > 30 | > 30 | > 30 | > 30 | > 30 | > 30 | > 30 |
| O=C(NNCS(=O)(=O)O)c1ccncc1 [METHANIAZIDE] | > 30 | > 30 | > 30 | > 30 | > 30 | > 30 | > 30 | > 30 |
| Cc1cc(=O)[nH]c(=S)[nH]1 [METHYLTHIOURACIL] | > 30 | > 30 | > 30 | > 30 | > 30 | > 30 | > 30 | > 30 |
| CCCCC1C(=O)N(c2ccccc2)N(c2ccc(O)cc2)C1=O (stereo not drawn) [OXYPHENBUTAZONE ANHYDROUS] | > 30 | > 30 | > 30 | > 30 | > 30 | > 30 | > 30 | > 30 |
| O=C(O)CN(CCN(CC(=O)O)CC(=O)O)CCN(CC(=O)O)CC(=O)O [PENTETIC ACID] | 19.8 | 6.51 | > 30 | > 30 | 3.91 | > 30 | 0.0429 | > 30 |
| Nc1cccc2c1C(=O)N(C1CCC(=O)NC1=O)C2=O (stereo not drawn) [POMALIDOMIDE] | > 30 | > 30 | > 30 | 26.7 | > 30 | > 30 | > 30 | > 30 |
| C[Se]CC[C@H](N)C(=O)O [SELENOMETHIONINE] | > 30 | > 30 | > 30 | > 30 | > 30 | > 30 | > 30 | > 30 |
| CC[C@]12CCCN3CCc4c(n(c5ccccc45)[C@@](O)(C(=O)OC)C1)[C@@H]32 [VINCAMINE] | > 30 | > 30 | > 30 | > 30 | > 30 | > 30 | > 30 | > 30 |
